Assay results: the kinase profiling compilation of Christmann-Franck et al. (2016)

How the values were obtained:
Assay in all cases: radiometric filter-binding kinase assay, Kinase HotSpot
Settings in all cases: compound 0.5 µM; ATP 10 µM
[1] = biological target: ERBB2 (human) (UniProt P04626)
[2] = biological target: MST4 (human) (UniProt Q9P289)
[3] = biological target: CSF1R (human) (UniProt P07333)
[4] = biological target: KIT (human) (UniProt P10721)
[5] = biological target: AKT2 (human) (UniProt P31751)
[6] = biological target: PDGFRA (human) (UniProt P16234)
[7] = biological target: CDK7 CCNH MNAT1 (human) (UniProt P50613+P51948+P51946)
[8] = biological target: MAPKAPK5 (human) (UniProt Q8IW41)
[9] = biological target: RPS6KA2 KD1 KD2 (human) (UniProt Q15349)
[10] = biological target: PIM1 (human) (UniProt P11309)
[11] = biological target: NTRK3 (human) (UniProt Q16288)
[12] = biological target: DYRK2 (human) (UniProt Q92630)
[13] = biological target: MARK4 (human) (UniProt Q96L34)
[14] = biological target: PAK7 (human) (UniProt Q9P286)
[15] = biological target: EPHA4 (human) (UniProt P54764)
[16] = biological target: STK4 (human) (UniProt Q13043)
Sequence of STK4 (human) (Q13043 whole entry, looked up): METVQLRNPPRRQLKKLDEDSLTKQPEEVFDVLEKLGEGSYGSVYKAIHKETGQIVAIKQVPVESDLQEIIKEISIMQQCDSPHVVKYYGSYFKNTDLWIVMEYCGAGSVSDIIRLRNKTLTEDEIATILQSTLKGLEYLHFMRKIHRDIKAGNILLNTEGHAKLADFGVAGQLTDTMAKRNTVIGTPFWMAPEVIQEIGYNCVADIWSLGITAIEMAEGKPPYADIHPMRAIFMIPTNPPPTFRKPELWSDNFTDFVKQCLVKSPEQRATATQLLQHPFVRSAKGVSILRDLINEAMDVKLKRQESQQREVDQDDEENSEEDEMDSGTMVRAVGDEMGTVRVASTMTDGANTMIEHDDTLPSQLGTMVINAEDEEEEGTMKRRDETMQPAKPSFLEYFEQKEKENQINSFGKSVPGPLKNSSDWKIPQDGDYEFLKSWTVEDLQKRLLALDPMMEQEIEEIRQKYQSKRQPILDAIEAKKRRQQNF

[17] = biological target: JAK3 JH1 JH2 (human) (UniProt P52333)
Sequence of JAK3 JH1 JH2 (human) (P52333 whole entry, looked up): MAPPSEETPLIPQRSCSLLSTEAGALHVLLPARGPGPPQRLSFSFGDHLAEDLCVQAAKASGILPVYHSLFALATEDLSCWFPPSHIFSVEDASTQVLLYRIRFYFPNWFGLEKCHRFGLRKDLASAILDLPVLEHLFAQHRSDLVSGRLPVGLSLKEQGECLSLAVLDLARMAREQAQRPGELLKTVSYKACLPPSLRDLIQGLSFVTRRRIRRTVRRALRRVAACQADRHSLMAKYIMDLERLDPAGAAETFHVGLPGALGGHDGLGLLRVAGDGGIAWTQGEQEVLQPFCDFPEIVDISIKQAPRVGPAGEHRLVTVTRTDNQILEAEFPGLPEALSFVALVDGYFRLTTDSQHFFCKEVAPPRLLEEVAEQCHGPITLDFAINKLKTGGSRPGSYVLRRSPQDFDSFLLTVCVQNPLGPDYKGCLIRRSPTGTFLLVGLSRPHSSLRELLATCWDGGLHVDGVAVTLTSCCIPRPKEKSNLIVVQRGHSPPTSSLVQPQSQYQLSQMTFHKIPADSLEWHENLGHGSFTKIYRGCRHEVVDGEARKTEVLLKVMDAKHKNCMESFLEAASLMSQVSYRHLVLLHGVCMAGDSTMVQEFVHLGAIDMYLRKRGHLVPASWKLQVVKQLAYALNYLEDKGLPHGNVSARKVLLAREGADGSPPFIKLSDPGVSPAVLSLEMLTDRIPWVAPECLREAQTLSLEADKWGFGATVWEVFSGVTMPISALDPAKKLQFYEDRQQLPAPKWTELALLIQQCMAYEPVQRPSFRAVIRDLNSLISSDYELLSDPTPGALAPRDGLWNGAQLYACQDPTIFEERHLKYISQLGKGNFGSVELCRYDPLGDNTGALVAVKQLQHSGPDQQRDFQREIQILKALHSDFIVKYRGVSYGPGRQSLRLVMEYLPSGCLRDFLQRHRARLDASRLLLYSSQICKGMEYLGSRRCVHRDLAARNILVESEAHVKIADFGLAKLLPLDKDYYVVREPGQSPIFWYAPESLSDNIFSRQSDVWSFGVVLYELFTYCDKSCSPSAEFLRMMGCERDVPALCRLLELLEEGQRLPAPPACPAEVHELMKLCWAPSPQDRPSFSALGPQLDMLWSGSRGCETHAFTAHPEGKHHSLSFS

[18] = biological target: AXL (human) (UniProt P30530)
Sequence of AXL (human) (P30530 whole entry, looked up): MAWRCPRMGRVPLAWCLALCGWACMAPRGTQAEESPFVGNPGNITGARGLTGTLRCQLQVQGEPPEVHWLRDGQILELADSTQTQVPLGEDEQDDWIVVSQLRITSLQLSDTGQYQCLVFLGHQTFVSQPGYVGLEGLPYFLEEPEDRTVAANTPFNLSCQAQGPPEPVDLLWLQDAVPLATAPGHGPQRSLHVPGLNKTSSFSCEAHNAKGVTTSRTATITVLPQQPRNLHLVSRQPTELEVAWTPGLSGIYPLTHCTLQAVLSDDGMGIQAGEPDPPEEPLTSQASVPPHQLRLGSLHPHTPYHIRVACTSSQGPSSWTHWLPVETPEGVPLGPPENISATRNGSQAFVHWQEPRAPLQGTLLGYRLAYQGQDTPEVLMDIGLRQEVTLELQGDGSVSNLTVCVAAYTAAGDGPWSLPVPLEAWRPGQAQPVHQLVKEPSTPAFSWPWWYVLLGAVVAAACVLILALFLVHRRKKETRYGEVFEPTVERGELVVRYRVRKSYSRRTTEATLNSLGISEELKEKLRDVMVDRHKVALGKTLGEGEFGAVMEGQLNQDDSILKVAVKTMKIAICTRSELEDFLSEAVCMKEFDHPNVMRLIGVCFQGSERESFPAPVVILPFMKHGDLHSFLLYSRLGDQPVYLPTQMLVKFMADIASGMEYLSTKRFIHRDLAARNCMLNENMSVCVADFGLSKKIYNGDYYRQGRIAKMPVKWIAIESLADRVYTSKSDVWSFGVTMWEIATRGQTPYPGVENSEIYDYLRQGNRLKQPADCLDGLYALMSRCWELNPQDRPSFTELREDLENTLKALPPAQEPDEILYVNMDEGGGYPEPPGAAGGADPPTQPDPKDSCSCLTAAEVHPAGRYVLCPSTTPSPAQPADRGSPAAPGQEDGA

[19] = biological target: PRKCI (human) (UniProt P41743)
Sequence of PRKCI (human) (P41743 whole entry, looked up): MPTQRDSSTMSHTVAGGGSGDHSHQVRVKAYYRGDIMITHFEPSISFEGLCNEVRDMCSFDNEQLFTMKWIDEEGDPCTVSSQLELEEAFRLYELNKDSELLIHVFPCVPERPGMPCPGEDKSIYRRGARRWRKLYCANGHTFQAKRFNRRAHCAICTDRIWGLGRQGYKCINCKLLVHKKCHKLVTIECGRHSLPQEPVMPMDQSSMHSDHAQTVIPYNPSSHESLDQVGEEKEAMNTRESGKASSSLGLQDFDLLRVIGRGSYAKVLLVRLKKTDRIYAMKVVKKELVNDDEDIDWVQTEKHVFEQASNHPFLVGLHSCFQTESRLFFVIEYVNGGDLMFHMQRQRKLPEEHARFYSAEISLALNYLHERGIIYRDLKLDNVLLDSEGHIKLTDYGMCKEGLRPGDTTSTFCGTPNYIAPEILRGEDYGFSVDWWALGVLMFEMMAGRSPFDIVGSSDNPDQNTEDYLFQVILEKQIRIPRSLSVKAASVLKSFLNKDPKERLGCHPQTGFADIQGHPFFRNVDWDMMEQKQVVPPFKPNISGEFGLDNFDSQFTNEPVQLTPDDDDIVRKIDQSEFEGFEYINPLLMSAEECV

[20] = biological target: CAMK2D (human) (UniProt Q13557)
[21] = biological target: MAPK8 (human) (UniProt P45983)
[22] = biological target: ITK (human) (UniProt Q08881)
[23] = biological target: PRKG2 (human) (UniProt Q13237)
[24] = biological target: PRKCB1 (human) (UniProt P05771)
[25] = biological target: PRKCB2 (human) (UniProt P05771)
[26] = biological target: PIM3 (human) (UniProt Q86V86)
[27] = biological target: MAP3K14 (human) (UniProt Q99558)
[28] = biological target: HIPK3 (human) (UniProt Q9H422)
[29] = biological target: FER (human) (UniProt P16591)
[30] = biological target: MATK (human) (UniProt P42679)
[31] = biological target: PKN2 (human) (UniProt Q16513)
[32] = biological target: NEK1 (human) (UniProt Q96PY6)
[33] = biological target: STK3 (human) (UniProt Q13188)
[34] = biological target: AURKB (human) (UniProt Q96GD4)
Sequence of AURKB (human) (Q96GD4 whole entry, looked up): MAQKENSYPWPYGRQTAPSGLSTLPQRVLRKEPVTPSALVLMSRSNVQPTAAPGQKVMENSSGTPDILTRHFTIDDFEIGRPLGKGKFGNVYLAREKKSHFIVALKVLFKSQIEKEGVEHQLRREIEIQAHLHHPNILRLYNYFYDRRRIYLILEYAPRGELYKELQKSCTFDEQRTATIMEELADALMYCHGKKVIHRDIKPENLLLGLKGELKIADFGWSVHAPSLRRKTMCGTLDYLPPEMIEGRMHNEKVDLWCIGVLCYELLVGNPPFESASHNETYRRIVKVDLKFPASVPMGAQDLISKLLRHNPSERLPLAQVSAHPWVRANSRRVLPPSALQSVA

[35] = biological target: CSNK1G2 (human) (UniProt P78368)
[36] = biological target: MET (human) (UniProt P08581)
[37] = biological target: IGF1R (human) (UniProt P08069)
[38] = biological target: EPHB2 (human) (UniProt P29323)
[39] = biological target: PLK3 (human) (UniProt Q9H4B4)
Sequence of PLK3 (human) (Q9H4B4 whole entry, looked up): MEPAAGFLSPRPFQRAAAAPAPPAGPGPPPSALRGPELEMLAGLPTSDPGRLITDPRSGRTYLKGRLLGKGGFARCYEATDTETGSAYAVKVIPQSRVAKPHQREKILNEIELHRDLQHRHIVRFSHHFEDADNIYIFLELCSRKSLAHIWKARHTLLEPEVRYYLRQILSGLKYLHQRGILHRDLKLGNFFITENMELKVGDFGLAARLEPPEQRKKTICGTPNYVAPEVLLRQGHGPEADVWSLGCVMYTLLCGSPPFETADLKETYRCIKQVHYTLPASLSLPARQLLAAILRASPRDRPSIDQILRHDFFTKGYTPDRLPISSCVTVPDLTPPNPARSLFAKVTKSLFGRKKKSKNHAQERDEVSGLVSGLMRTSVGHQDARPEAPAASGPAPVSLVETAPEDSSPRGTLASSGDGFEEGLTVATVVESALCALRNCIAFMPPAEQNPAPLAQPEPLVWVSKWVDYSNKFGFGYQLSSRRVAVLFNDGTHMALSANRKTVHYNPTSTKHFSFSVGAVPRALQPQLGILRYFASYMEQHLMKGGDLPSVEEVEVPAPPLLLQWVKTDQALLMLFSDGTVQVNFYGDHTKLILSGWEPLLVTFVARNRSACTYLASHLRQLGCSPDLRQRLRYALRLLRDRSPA

[40] = biological target: RPS6KA1 KD1 KD2 (human) (UniProt Q15418)
[41] = biological target: PAK6 (human) (UniProt Q9NQU5)
[42] = biological target: STK11 (human) (UniProt Q15831)

Sequence of CSF1R (human) (P07333 whole entry, looked up): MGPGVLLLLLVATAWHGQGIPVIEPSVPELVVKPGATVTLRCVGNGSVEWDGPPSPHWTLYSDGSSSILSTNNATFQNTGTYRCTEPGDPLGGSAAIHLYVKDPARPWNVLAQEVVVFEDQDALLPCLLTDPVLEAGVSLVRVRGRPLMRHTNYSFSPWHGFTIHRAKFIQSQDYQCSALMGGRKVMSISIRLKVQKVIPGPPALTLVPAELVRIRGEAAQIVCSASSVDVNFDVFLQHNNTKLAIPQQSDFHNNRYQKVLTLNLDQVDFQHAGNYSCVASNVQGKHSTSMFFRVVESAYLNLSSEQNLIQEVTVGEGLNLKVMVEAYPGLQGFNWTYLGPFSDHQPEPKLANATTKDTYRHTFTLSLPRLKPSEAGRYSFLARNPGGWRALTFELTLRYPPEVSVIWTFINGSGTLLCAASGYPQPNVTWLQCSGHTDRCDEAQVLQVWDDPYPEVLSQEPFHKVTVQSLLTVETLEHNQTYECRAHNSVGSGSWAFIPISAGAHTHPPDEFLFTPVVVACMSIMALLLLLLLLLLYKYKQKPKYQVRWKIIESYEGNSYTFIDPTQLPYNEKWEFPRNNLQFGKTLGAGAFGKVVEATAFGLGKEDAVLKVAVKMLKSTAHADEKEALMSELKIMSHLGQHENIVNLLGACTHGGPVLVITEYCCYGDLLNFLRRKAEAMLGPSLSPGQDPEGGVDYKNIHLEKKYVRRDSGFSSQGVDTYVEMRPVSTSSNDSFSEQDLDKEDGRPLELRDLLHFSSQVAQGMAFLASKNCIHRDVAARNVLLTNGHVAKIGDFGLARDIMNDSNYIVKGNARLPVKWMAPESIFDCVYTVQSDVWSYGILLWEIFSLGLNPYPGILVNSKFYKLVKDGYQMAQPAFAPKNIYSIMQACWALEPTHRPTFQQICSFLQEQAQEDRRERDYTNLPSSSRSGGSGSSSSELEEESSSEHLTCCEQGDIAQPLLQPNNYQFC

Question: What does the source list for `Cn1cc(/C=C2\C(=O)Nc3ccc(S(N)(=O)=O)cc32)c2ccccc21`?
Answer: residual activity [1]: 120%; residual activity [2]: 101%; residual activity [3]: 82.5%; residual activity [4]: 68.2%; residual activity [5]: 88.6%; residual activity [6]: 81%; residual activity [7]: 73.7%; residual activity [8]: 88.3%; residual activity [9]: 9.26%; residual activity [10]: 96.5%; residual activity [11]: 1.18%; residual activity [12]: 85.5%; residual activity [13]: 40.6%; residual activity [14]: 75.3%; residual activity [15]: 80.5%; residual activity [16]: 10.7%; residual activity [17]: 43.7%; residual activity [18]: 49.2%; residual activity [19]: 99.6%; residual activity [20]: 66.8%; residual activity [21]: 108%; residual activity [22]: 21.4%; residual activity [23]: 85%; residual activity [24]: 114%; residual activity [25]: 86.7%; residual activity [26]: 91.6%; residual activity [27]: 123%; residual activity [28]: 105%; residual activity [29]: 20%; residual activity [30]: 103%; residual activity [31]: 81.8%; residual activity [32]: 68.5%; residual activity [33]: 23.4%; residual activity [34]: 10.5%; residual activity [35]: 100%; residual activity [36]: 84.2%; residual activity [37]: 87.9%; residual activity [38]: 84.8%; residual activity [39]: 99%; residual activity [40]: 12.7%; residual activity [41]: 90.1%; residual activity [42]: 68.2%

Question: Which results are given for `O=c1c(-c2ccc(F)cc2)c(-c2ccncc2)[nH]n1-c1ccc(Cl)cc1`?
Answer: residual activity [1]: 103%; residual activity [2]: 94.1%; residual activity [3]: 102%; residual activity [4]: 94.9%; residual activity [5]: 97.8%; residual activity [6]: 103%; residual activity [7]: 97.4%; residual activity [8]: 99.7%; residual activity [9]: 91.8%; residual activity [10]: 101%; residual activity [11]: 99.2%; residual activity [12]: 86.9%; residual activity [13]: 80%; residual activity [14]: 86.3%; residual activity [15]: 93.5%; residual activity [16]: 90%; residual activity [17]: 106%; residual activity [18]: 113%; residual activity [19]: 96.2%; residual activity [20]: 95.6%; residual activity [21]: 90.2%; residual activity [22]: 79.7%; residual activity [23]: 110%; residual activity [24]: 84.7%; residual activity [25]: 92.4%; residual activity [26]: 89.9%; residual activity [27]: 102%; residual activity [28]: 101%; residual activity [29]: 94.3%; residual activity [30]: 86%; residual activity [31]: 96.4%; residual activity [32]: 78.7%; residual activity [33]: 88.3%; residual activity [34]: 95.1%; residual activity [35]: 93.8%; residual activity [36]: 101%; residual activity [37]: 92.8%; residual activity [38]: 101%; residual activity [39]: 96.3%; residual activity [40]: 103%; residual activity [41]: 73.5%; residual activity [42]: 98.8%

Question: Which residual activity [1] does the source give for `FC(F)(F)c1ccc(/C=C/c2nc(COc3ccc(CCCCn4ccnn4)cc3)co2)cc1` here?
Answer: Its residual activity is 102%.

Question: And the residual activity [2]?
Answer: The residual activity was 98%.

Question: And the residual activity [3]?
Answer: The residual activity was 103%.

Question: And the residual activity [4]?
Answer: The residual activity was 98.8%.

Question: And the residual activity [5]?
Answer: Its residual activity is 99.9%.

Question: What about the residual activity [6] of the same compound?
Answer: Its residual activity is 104%.

Question: What about the residual activity [7] of the same compound?
Answer: The residual activity was 107%.

Question: What about the residual activity [8] of the same compound?
Answer: The residual activity was 101%.

Question: What about the residual activity [9] of the same compound?
Answer: Its residual activity is 96.8%.

Question: What about the residual activity [10] of the same compound?
Answer: The residual activity was 102%.

Question: And the residual activity [11]?
Answer: The residual activity was 98.9%.

Question: What about the residual activity [12] of the same compound?
Answer: Its residual activity is 110%.

Question: And the residual activity [13]?
Answer: The residual activity was 97.9%.

Question: And the residual activity [14]?
Answer: The residual activity was 89.4%.

Question: And the residual activity [15]?
Answer: Its residual activity is 98.8%.

Question: And the residual activity [16]?
Answer: Its residual activity is 97.5%.

Question: And the residual activity [17]?
Answer: The residual activity was 93%.

Question: And the residual activity [18]?
Answer: The residual activity was 101%.

Question: And the residual activity [19]?
Answer: The residual activity was 92.6%.

Question: What about the residual activity [20] of the same compound?
Answer: The residual activity was 109%.

Question: What about the residual activity [21] of the same compound?
Answer: The residual activity was 105%.

Question: What about the residual activity [22] of the same compound?
Answer: Its residual activity is 102%.

Question: What about the residual activity [23] of the same compound?
Answer: Its residual activity is 89.9%.

Question: And the residual activity [24]?
Answer: Its residual activity is 103%.

Question: And the residual activity [25]?
Answer: Its residual activity is 93.1%.

Question: What about the residual activity [26] of the same compound?
Answer: The residual activity was 107%.

Question: What about the residual activity [27] of the same compound?
Answer: The residual activity was 95.8%.

Question: And the residual activity [28]?
Answer: The residual activity was 100%.

Question: What about the residual activity [29] of the same compound?
Answer: The residual activity was 102%.

Question: And the residual activity [30]?
Answer: Its residual activity is 95%.

Question: What about the residual activity [31] of the same compound?
Answer: Its residual activity is 107%.

Question: And the residual activity [32]?
Answer: Its residual activity is 94.5%.

Question: What about the residual activity [33] of the same compound?
Answer: Its residual activity is 95.5%.

Question: And the residual activity [34]?
Answer: The residual activity was 98%.

Question: What about the residual activity [35] of the same compound?
Answer: The residual activity was 96.7%.

Question: And the residual activity [36]?
Answer: The residual activity was 95.1%.

Question: What about the residual activity [37] of the same compound?
Answer: Its residual activity is 101%.

Question: What about the residual activity [38] of the same compound?
Answer: The residual activity was 98.3%.

Question: And the residual activity [39]?
Answer: Its residual activity is 107%.

Question: What about the residual activity [40] of the same compound?
Answer: The residual activity was 97.9%.

Question: What about the residual activity [41] of the same compound?
Answer: Its residual activity is 100%.

Question: What about the residual activity [42] of the same compound?
Answer: The residual activity was 104%.

Question: With `CCCCc1c(-c2ccc(O)cc2)[nH]c2nccnc12` as the compound, how does the residual activity [1] read?
Answer: Its residual activity is 97.7%.

Question: And the residual activity [2]?
Answer: The residual activity was 79.1%.

Question: And the residual activity [3]?
Answer: Its residual activity is 38.4%.

Question: And the residual activity [4]?
Answer: The residual activity was 80.8%.

Question: And the residual activity [5]?
Answer: The residual activity was 95.3%.

Question: What about the residual activity [6] of the same compound?
Answer: Its residual activity is 95.1%.

Question: And the residual activity [7]?
Answer: Its residual activity is 88.2%.

Question: And the residual activity [8]?
Answer: The residual activity was 93.1%.

Question: And the residual activity [9]?
Answer: Its residual activity is 87.7%.

Question: What about the residual activity [10] of the same compound?
Answer: The residual activity was 83.8%.

Question: What about the residual activity [11] of the same compound?
Answer: Its residual activity is 76.1%.

Question: What about the residual activity [12] of the same compound?
Answer: Its residual activity is 93.1%.

Question: And the residual activity [13]?
Answer: Its residual activity is 84.6%.

Question: What about the residual activity [14] of the same compound?
Answer: The residual activity was 82.9%.

Question: And the residual activity [15]?
Answer: The residual activity was 87.5%.

Question: What about the residual activity [16] of the same compound?
Answer: Its residual activity is 78.3%.

Question: What about the residual activity [17] of the same compound?
Answer: The residual activity was 92.2%.

Question: What about the residual activity [18] of the same compound?
Answer: The residual activity was 103%.

Question: What about the residual activity [19] of the same compound?
Answer: Its residual activity is 99.4%.

Question: And the residual activity [20]?
Answer: Its residual activity is 87.3%.

Question: What about the residual activity [21] of the same compound?
Answer: Its residual activity is 81.9%.

Question: What about the residual activity [22] of the same compound?
Answer: The residual activity was 104%.

Question: And the residual activity [23]?
Answer: Its residual activity is 92.6%.

Question: And the residual activity [24]?
Answer: Its residual activity is 95.5%.

Question: What about the residual activity [25] of the same compound?
Answer: The residual activity was 118%.

Question: And the residual activity [26]?
Answer: Its residual activity is 72.8%.

Question: And the residual activity [27]?
Answer: Its residual activity is 95.4%.

Question: What about the residual activity [28] of the same compound?
Answer: The residual activity was 100%.

Question: What about the residual activity [29] of the same compound?
Answer: The residual activity was 55.6%.

Question: What about the residual activity [30] of the same compound?
Answer: The residual activity was 109%.

Question: What about the residual activity [31] of the same compound?
Answer: The residual activity was 82.4%.

Question: And the residual activity [32]?
Answer: Its residual activity is 92.2%.

Question: What about the residual activity [33] of the same compound?
Answer: The residual activity was 76.6%.

Question: And the residual activity [34]?
Answer: The residual activity was 66.9%.

Question: And the residual activity [35]?
Answer: The residual activity was 78.5%.

Question: And the residual activity [36]?
Answer: Its residual activity is 82.7%.

Question: And the residual activity [37]?
Answer: Its residual activity is 87.3%.

Question: What about the residual activity [38] of the same compound?
Answer: The residual activity was 92.3%.

Question: What about the residual activity [39] of the same compound?
Answer: Its residual activity is 90.6%.

Question: And the residual activity [40]?
Answer: Its residual activity is 82.6%.

Question: What about the residual activity [41] of the same compound?
Answer: Its residual activity is 94.3%.

Question: What about the residual activity [42] of the same compound?
Answer: Its residual activity is 33.5%.
